Assay results reported in the supplement of paper PMC8967900.

Key:
Assay in all cases: selective drug sensitivity score (sDSS, relative to normal bone marrow) (sDSS (score)); higher = more potent and effective on the cell line relative to normal bone marrow cells
Settings in all cases: 72 h
MHH-CALL-2 = tested on: MHH-CALL-2
NALL-1 = tested on: NALL-1
REH = tested on: REH
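Note: ALL cell lines in 384-well plates, five doses spanning 10,000-fold, each plate scaled between vehicle and 100 µmol/L benzalkonium chloride controls, sDSS an adapted area-under-curve metric.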

| SMILES | selective drug sensitivity score (MHH-CALL-2) | selective drug sensitivity score (NALL-1) | selective drug sensitivity score (REH) |
| --- | --- | --- | --- |
| Cc1c(-c2ccc(N3CCc4cccc(C(=O)Nc5nc6ccccc6s5)c4C3)nc2C(=O)O)cnn1CC12CC3CC(CC(C3)C1)C2 (top concentration 1000 nM) | -1.26 | 0.14 | -2.26 |
| O=C(NOC[C@H](O)CO)c1ccc(F)c(F)c1Nc1ccc(I)cc1F (top concentration 1000 nM) | -0.36 | -4.16 | -4.16 |
| CO[C@@H](C)Cn1c(=O)n(C)c2cnc3ccc(-c4cncc(C(C)(C)O)c4)cc3c21 (top concentration 2500 nM) | 6.98 | 0.48 | 6.78 |
| Cc1cccc(CC(=O)N2CCc3c2ccc(-c2cn(C)c4ncnc(N)c24)c3F)n1 (top concentration 2500 nM) | 5.02 | -0.68 | 9.62 |
| CNC(=O)c1ccccc1Nc1nc(Nc2ccc3c(c2OC)CCC[C@H](N2CCN(CCO)CC2)C3)ncc1Cl (top concentration 5000 nM) | 1.66 | -3.34 | -2.24 |
| COc1cc2ncnc(Oc3cccc(NC(=O)Nc4cc(C(C)(C)C(F)(F)F)on4)c3)c2cc1OC (top concentration 10000 nM) | 4.2 | 0.3 | 5 |
| C[C@@H](Oc1cc(-n2cnc3ccc(CN4CCN(C)CC4)cc32)sc1C(N)=O)c1ccccc1C(F)(F)F (top concentration 10000 nM) | 18.4 | 5.82 | 21.8 |
| Nc1nccc(-c2c(-c3ccc(F)cc3)ncn2C2CCCCC2)n1 (top concentration 10000 nM) | 4.1 | 0.1 | 0.8 |
| O=C(O)c1ccc(-c2c[nH]c3ncc(-c4ccccc4)cc23)cc1C1CCCC1 (top concentration 10000 nM) | 11.7 | 7.66 | -1.44 |
| C[C@@H]1CN(CC(=O)Nc2ccc3c(c2)Cc2cccc(-c4cc(=O)cc(N5CCOCC5)o4)c2S3)C[C@H](C)O1 (top concentration 25000 nM) | 0.92 | -2.18 | 6.12 |
| COc1ccc2[nH]cc(/C=C3\C(=O)Nc4ccc(NC(=O)CCN5CCCCC5)cc43)c2c1 (top concentration 50000 nM) | -2.82 | -2.52 | -1.62 |
| Cc1nn(C)c(COc2ccc(N3CCN(S(=O)(=O)N(C)C)CC3)cc2)c1-c1cccc2c(CCCOc3cccc4ccccc34)c(C(=O)O)n(CCN3CCOCC3)c12 (top concentration 50000 nM) | 7.86 | 5.46 | 8.46 |
| C[C@H](Nc1ncnc2[nH]cnc12)c1cc2ccc(F)cc2nc1-c1ccccn1 [AMG319] (top concentration 1000 nM) | -1.42 | -1.42 | -1.02 |
| C=CCn1c(=O)c2cnc(Nc3ccc(N4CCN(C)CC4)cc3)nc2n1-c1cccc(C(C)(C)O)n1 [AZD1775] (top concentration 10000 nM) | 10.5 | 4.84 | 13.5 |
| NC(=O)Nc1cc(-c2cccc(F)c2)sc1C(=O)N[C@H]1CCCNC1 [AZD7762] (top concentration 1000 nM) | 5.1 | -2.1 | -1.1 |
| Cc1cc([C@@H](C)Nc2ccccc2C(=O)O)c2nc(N3CCOCC3)cc(=O)n2c1 [AZD-6482] (top concentration 2500 nM) | 2.82 | 7.42 | 7.82 |
| CN(C)Cc1c(C(=O)NCCOc2ccc(C(=O)NO)cc2)oc2ccccc12 [Abexinostat] (top concentration 10000 nM) | 9.06 | 1.06 | 2.26 |
| S=C(NCc1ccc2c(c1)OCO2)N1CCN(c2ncnc3c2oc2ccccc23)CC1 [Amuvatinib] (top concentration 10000 nM) | 3.66 | 2.16 | 5.56 |
